Data published in US9045507B2, “Coumarin-based amino acids for use in enzyme activity and substrate specificity assays” (UNIVERSITY OF SOUTHERN CALIFORNIA, priority 2005, dated 2015).
Where a SMILES comes first, the peptide text is derived from it. [ ]: non-standard residue; d: D form. pY = N[C@@H](Cc1ccc(OP(=O)(O)O)cc1)C(=O)O

Key:
Type in all cases: biochemical
[1] = target: T1, Protein tyrosine phosphatase from Yersinia enterocolitica (YOP) (Yersinia enterocolitica, UniProt P15273); experiment: Enzyme activity assay: PTP-catalyzed hydrolysis of substrates by YOP; details: pH 7.1, room temperature; for Km: read-out: Km (best fit to the Michaelis-Menten equation)
T1 construct: purchased Calbiochem
From the text: (§1) Protein tyrosine phosphatase from Yersinia enterocolitica (YOP)^16 and human T-cell PTP (TCPTP)^17 were obtained from Calbiochem in purified form and used as received. Reagents for solid phase peptide synthesis including Fmoc protected amino acids and Rink Amide resin were obtained from Novabiochem and used without further purification. Trichloroethanol (TCE), resorcinol, dicyclohexylcarbodiimide (DCC) and N,N-dimethylaminopyridine (DMAP) were obtained from Lancaster, isopropenyl chloroformate (IPCF) from Acros Organics, trifluoroacetic acid (TFA) from Oakwood Chemicals and methanesulfonic acid, diethyl chlorophosphate and zinc dust were obtained from Aldrich Chemical Company. Dry solvents were obtained from VWR and Aldrich. Fluorinated resorcinols were synthesized according to a literature procedure.^18 All of the chemicals were used as received, except zinc, which was activated prior to use by washing with 20% HCl, followed by water and acetone.
^1H, ^13C, and ^31P NMR spectra were recorded on Bruker AC 250, Bruker AC 360 and Varian 400 MHz instruments. Peptides were purified on a Varian ProStar 210 HPLC system using a preparative-scale C18 reverse-phase column. Mass spectrometric characterization was carried out using an Applied Biosystems Voyager-DE STR MALDI-TOF instrument with α-cyanohydroxycinnamic acid as the matrix. Enzyme assays with fluorogenic substrates were performed on a Molecular Devices Analyst AD multimode plate reader in fluorescence mode with an excitation filter, emission filter and dichroic mirror at 360 nm, 425 nm, and 400 nm, respectively. Enzymatic hydrolysis of the phosphotyrosine-containing peptide DADE-phpsphotyrosine-GPAA (9a) was followed by observing an increase in absorbance at 280 nm using a Varian Cary50 spectrophotometer.
Standard conditions employed to determine the kinetic constants of each substrate with YOP and TCPTP are described below. Substrates were dissolved in DMSO and diluted to the appropriate concentration in DMSO. Aliquots were taken such that each reaction had the same amount of DMSO, which never exceeded 5% of the reaction volume (usually 200 μL). The buffer used for all studies contained 50 mM HEPES, pH 7.1, 100 mM NaCl, 2 mM EDTA, 0.01% Brij 35, 1 mM dithiothreitol (DTT). Prior to each reaction, the enzyme was incubated in buffer with freshly added DTT for 10 min on ice. […] The increase in signal (absorbance or fluorescence) due to substrate hydrolysis was measured every 60 s for 30 min. […] Standard curves were prepared using authentic samples of the appropriate product, relative fluorescence or absorbance units were converted into concentration of product formed, and the resulting data was fit to the Michaelis-Menten equation, providing kinetic parameters for each substrate.

[2] = target: protein tyrosine kinase Csk (Homo sapiens, UniProt P41240); experiment: Kinase assay: MU as substrate for Csk; details: fluorescence decrease, ATP, pH 6.8
Experimental: Currently kinases assays are done using radioactive ATP. We envision that a highly sensitive fluorescence based assay would be more convenient. MU, an analog of CAP, was tested as a substrate for the protein tyrosine kinase Csk, to check the viability of the idea (FIG. 8). […] In addition, the fluorinated derivatives also serve as sensitive fluorescent assays for PTK activity.
Stock solutions of MU were prepared in DMSO to make 1 and 10 mM solutions. For enzymatic assays, various aliquots of each substrate and DMSO (to a total of 5 μL) were placed on a 96 well plate, incubated with 75 μL buffer (30 mM HEPES, 5 mM MgCl2, 0.01% Brij 35, pH 6.8) for 5 mins, treated with 1 μL of 10 mM ATP, followed by 20 μL of 12.8 nM Csk. The decrease in signal (fluorescence) due to substrate phosphorylation was measured every 60 s for 30 min. Each reaction was run in triplicate and the results averaged. Standard curves were prepared using authentic samples of the appropriate substrate, relative fluorescence units were converted into concentration of substrate left unreacted, and the resulting data was fit to the Michaelis-Menten equation, providing kinetic parameters for each substrate.

[3] = target: T2, human T-cell PTP (TCPTP) (Homo sapiens, UniProt P17706); experiment: Enzyme activity assay: PTP-catalyzed hydrolysis of substrates by TCPTP; details: pH 7.1, 30° C.
T2 construct: purchased Calbiochem
T2 sequence (P17706 1-415): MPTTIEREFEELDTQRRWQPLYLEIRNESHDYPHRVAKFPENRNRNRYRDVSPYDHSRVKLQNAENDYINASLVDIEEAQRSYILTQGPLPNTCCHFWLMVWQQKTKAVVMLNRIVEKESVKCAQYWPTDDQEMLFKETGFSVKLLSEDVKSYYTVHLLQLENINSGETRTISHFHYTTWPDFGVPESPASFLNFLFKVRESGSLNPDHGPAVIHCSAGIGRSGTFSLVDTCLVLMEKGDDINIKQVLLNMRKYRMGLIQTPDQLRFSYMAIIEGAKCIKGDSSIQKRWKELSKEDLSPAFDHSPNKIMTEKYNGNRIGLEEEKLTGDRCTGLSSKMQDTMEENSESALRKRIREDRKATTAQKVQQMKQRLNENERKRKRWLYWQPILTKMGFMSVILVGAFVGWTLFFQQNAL
From the text: as §1, with “Fluorinated resorcinols were synthesized according to a literature procedure.^18 All of the chemicals were used as received, except zinc, which was activated prior to use by washing with 20% HCl, followed by water and acetone.” left out
^1H, ^13C, and ^31P NMR spectra were recorded on Bruker AC 250, Bruker AC 360 and Varian 400 MHz instruments. […] Enzyme assays with fluorogenic substrates were performed on a Molecular Devices Analyst AD multimode plate reader in fluorescence mode with an excitation filter, emission filter and dichroic mirror at 360 nm, 425 nm, and 400 nm, respectively. Enzymatic hydrolysis of the phosphotyrosine-containing peptide DADE-phpsphotyrosine-GPAA (9a) was followed by observing an increase in absorbance at 280 nm using a Varian Cary50 spectrophotometer. […]

T1 sequence (P15273 whole entry): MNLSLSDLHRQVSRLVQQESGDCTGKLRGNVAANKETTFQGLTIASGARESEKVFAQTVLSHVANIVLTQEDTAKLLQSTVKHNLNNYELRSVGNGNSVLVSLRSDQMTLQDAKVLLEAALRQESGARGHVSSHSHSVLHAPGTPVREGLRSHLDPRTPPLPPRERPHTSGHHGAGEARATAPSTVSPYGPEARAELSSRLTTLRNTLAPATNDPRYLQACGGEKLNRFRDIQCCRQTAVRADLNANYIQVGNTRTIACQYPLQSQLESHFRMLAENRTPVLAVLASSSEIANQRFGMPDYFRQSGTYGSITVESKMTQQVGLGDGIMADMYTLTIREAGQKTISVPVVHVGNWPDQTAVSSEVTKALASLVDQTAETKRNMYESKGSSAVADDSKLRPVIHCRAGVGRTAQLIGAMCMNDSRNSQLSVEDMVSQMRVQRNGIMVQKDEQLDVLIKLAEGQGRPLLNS

Row | phosphorylation of substrate by Csk [2] | kcat (best fit to the Michaelis-Menten equation) [3] [s⁻¹] | Km ([3]; read-out: Km (best fit to the Michaelis-Menten equation)) [µM] | Compound | kcat (best fit to the Michaelis-Menten equation) [1] [s⁻¹] | Km [1] [µM]
1 | – | – | – | Cc1cc(=O)oc2cc(OP(=O)(O)O)ccc12 [MUP] | 5.7 ± 0.5 | 800 ± 200
2 | Csk indeed phosphorylated MU to MUP | – | – | Cc1cc(=O)oc2cc(O)ccc12 [MU, 4-methylumbelliferone] | – | –
3 | – | 35 ± 10 | 800 ± 300 | DADE-pCAP-GPAA-NH2 [10a] | – | –
4 | – | – | – | C[C@H](NC(=O)[C@H](C)NC(=O)[C@@H]1CCCN1C(=O)CNC(=O)[C@H](Cc1ccc(OP(=O)(O)O)cc1)NC(=O)[C@H](CCC(=O)O)NC(=O)[C@H](CC(=O)O)NC(=O)[C@H](C)NC(=O)[C@@H](N)CC(=O)O)C(N)=O [9a, DADE-pY-GPAA-NH2] (H-DADE[pY]GPAA-NH2) | 100 ± 20 | 2700 ± 800
